This is an account of results in ChEMBL document CHEMBL1201862, “PubChem BioAssay data set” (2004).

The structures appear in SMILES notation. Calls of active or inactive are those of the source.

For test [1], the target named is T1, SUMO-activating enzyme (Homo sapiens, UniProt Q9UBT2). As to the kind of experiment: blockers of UBC9-mediated SUMO conjugation – biochemical, AlphaScreen, SUMOylation inhibitor project, confirmation (AID 2018). In kind it is functional.
The target of test [2] is T1, SUMO-activating enzyme. As to the kind of experiment: blockers of SAE1/SAE2–UBC9 SUMO transfer – biochemical, HTRF, uHTS, primary screen (AID 2006). In kind it is protein-complex assay.
Test [3] in a line: HEK-293T cell viability reduction – luminescence, B-cell screen hits, cytotoxicity control for BCR NF-kB inhibitor project, dose response (AID 489021).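 Also: HEK-293T cells carrying an NF-kB luciferase reporter; cells exposed to compound for about 14 hours before viability readout.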 The test is classed as functional, cell-based.
Test [4] addresses 26S proteasome non-ATPase regulatory subunit 14 (Homo sapiens, UniProt O00487). As to the kind of experiment: inhibition of proteasome subunit RPN11 – biochemical, fluorescence polarization, uHTS hits, confirmation (AID 602368). In kind it is functional.
In test [5] the target is 72 kDa type IV collagenase (Homo sapiens, UniProt P08253). Briefly: Dose Response validation of uHTS RPN11 inhibitor hits using a MMP-2 Fluorescence assay. The test is classed as functional.
72 kDa type IV collagenase, sequence (P08253 whole entry): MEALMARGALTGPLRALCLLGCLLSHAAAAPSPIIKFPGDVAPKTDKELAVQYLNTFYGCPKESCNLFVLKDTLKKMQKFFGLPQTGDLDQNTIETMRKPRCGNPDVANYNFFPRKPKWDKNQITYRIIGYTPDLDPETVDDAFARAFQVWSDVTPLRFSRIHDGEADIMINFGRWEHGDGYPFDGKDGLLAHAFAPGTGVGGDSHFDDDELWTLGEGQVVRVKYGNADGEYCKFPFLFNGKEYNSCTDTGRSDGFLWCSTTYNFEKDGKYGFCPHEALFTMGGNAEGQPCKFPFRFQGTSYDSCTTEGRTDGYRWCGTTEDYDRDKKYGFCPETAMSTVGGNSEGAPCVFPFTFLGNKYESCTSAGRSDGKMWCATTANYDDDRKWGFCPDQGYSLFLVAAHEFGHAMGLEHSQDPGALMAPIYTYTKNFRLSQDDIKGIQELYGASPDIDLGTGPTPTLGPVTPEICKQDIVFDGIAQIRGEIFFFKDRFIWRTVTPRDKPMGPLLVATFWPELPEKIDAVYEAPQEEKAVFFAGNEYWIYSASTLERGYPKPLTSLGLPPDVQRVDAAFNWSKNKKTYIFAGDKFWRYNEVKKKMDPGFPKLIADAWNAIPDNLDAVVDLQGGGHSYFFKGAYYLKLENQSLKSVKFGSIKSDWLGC
For a further test, the target named is Prothrombin (Bos taurus, UniProt P00735). As to the kind of experiment: thrombin protease inhibitors – biochemical, fluorescence polarization, uHTS hits, dose response (AID 602369). In kind it is functional. On the technique in general: Polarisation of emitted light reports the rotation of a fluorescent probe.
Test [6] concerns the target Protein disulfide-isomerase (Homo sapiens, UniProt P07237). As to the kind of experiment: inhibition of PDI-driven insulin aggregation – biochemical, turbidity, absorbance, cherry-picked samples, dose response (AID 602350). In kind it is functional.
Test [7] addresses T2, Sentrin-specific protease 8 (Homo sapiens, UniProt Q96LD8).
T2 sequence (Q96LD8 whole entry): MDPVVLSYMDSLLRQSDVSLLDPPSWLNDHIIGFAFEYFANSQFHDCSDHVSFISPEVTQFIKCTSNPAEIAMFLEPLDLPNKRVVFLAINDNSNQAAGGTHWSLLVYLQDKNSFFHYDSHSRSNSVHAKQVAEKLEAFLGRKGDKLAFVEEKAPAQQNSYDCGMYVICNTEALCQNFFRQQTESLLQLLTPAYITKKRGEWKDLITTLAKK
As to the kind of experiment: inhibition of human SENP8 cleavage activity – biochemical, luminescence, SAR follow-up (AID 504501). In kind it is functional.

The next test has as its target T3, Caspase-3 (Homo sapiens, UniProt P42574).
T3 sequence (P42574 whole entry): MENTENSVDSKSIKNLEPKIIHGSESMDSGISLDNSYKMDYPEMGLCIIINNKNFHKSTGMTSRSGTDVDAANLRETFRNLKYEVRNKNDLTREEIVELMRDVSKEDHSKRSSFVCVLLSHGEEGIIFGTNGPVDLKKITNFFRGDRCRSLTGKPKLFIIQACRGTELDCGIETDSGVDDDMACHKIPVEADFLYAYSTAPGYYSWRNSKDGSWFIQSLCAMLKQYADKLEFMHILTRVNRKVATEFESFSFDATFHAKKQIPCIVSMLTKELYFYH
As to the kind of experiment: SAR Analysis of small molecule inhibitors of Sentrin-specific proteases (SENPs) using a Caspase-3 Selectivity assay. [Related pubchem assays (depositor defined):AID2540, AID2599, AID434973, AID489001]. In kind it is functional.

For test [8], the target named is T4, Sentrin-specific protease 6 (Homo sapiens, UniProt Q9GZR1).
T4 sequence (Q9GZR1 whole entry): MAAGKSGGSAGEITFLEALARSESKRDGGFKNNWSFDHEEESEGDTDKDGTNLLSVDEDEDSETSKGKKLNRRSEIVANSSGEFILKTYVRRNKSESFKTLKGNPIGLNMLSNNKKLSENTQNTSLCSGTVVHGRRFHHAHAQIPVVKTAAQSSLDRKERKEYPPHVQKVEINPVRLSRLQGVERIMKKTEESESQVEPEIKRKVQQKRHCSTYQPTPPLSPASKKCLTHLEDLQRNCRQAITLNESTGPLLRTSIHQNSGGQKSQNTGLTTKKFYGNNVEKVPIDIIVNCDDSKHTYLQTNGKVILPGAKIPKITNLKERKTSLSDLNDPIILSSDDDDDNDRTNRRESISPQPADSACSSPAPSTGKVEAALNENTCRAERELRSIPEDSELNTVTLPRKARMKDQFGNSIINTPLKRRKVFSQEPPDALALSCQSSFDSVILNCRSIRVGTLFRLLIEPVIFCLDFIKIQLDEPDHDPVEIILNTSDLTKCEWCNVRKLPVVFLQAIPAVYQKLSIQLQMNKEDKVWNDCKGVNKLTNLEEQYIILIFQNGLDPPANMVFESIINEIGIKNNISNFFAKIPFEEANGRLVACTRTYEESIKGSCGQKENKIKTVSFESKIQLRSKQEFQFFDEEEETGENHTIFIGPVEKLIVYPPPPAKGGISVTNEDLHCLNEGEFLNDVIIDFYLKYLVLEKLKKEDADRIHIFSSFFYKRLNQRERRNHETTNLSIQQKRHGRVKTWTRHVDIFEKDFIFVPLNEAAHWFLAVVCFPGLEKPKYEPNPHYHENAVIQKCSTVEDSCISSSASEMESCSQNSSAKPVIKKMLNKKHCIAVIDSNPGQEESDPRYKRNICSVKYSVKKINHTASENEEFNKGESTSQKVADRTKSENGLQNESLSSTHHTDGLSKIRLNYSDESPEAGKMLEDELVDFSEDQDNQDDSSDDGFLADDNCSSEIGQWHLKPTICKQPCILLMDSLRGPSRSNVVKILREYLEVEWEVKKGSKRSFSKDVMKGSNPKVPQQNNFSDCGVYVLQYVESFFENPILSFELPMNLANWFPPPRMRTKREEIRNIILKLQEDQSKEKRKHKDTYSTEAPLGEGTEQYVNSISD
As to the kind of experiment: SAR Analysis of small molecule inhibitors of Sentrin-specific protease 6 (SENP6) using a Luminescent assay. [Related pubchem assays (depositor defined):AID2582, AID2599]. The test is classed as functional.

For test [9], the target named is T5, Sentrin-specific protease 7 (Homo sapiens, UniProt Q9BQF6).
T5 sequence (Q9BQF6 whole entry): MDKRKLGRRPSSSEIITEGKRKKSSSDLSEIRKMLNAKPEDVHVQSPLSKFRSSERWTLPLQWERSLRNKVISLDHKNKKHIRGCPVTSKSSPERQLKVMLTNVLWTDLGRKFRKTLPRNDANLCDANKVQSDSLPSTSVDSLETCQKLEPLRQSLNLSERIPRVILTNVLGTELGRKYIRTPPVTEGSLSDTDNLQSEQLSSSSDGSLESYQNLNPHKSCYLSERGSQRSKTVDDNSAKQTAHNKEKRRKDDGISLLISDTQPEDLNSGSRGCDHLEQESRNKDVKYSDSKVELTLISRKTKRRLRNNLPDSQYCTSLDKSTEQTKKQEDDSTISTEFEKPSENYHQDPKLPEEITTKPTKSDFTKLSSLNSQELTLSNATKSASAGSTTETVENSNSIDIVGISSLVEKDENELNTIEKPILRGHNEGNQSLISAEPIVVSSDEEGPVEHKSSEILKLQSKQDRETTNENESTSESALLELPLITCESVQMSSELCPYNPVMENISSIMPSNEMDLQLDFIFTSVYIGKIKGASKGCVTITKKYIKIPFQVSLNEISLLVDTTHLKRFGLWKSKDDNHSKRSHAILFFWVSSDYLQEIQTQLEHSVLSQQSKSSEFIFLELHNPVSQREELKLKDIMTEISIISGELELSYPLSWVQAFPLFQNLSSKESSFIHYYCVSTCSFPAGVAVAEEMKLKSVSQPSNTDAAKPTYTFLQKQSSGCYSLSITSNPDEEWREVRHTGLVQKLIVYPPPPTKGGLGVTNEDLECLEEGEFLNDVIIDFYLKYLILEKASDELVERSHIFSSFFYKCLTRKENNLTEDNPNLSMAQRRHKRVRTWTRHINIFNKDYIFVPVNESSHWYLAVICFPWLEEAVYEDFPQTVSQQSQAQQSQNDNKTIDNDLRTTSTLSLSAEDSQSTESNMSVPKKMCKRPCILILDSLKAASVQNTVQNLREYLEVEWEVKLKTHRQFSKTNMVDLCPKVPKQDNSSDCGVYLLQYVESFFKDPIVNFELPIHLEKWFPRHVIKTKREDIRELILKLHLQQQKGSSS
Briefly: inhibition of human SENP7 cleavage activity – biochemical, luminescence, SAR follow-up (AID 504497). In kind it is functional.

Test [10] concerns the target DNA dC->dU-editing enzyme APOBEC-3G (Homo sapiens, UniProt Q9HC16). Briefly: inhibition of APOBEC3G ssDNA deamination – biochemical, fluorescence, single-stranded DNA substrate, SAR follow-up (AID 602136). In kind it is functional. The settings on record: read-out: IC50_Mean.
Test [11] addresses DNA dC->dU-editing enzyme APOBEC-3A (Homo sapiens, UniProt P31941). Briefly: SAR analysis of small molecule inhibitors of APOBEC3A DNA Deaminase via a fluorescence-based single-stranded DNA deaminase assay. In kind it is functional. Conditions: read-out: IC50_Mean.
The nature of test [12]: Trypanosoma cruzi growth suppression in host cells – NIH3T3 host cells, beta-gal luminescence, confirmation (AID 2044).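 Also: intracellular parasites grown in NIH/3T3 mouse fibroblasts as host cells; luminescent beta-galactosidase reporter signal from transgenic T. cruzi replicating inside host cells; inhibitors lower the luminescence signal.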 The test is classed as functional, cell-based.
Test [13] in a line: NIH3T3 cell viability loss – ATP luminescence, mouse fibroblasts, counter-screen, dose response (AID 2010).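 Also: cells exposed to compound for about 90 hours before reading.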 In kind it is functional, cell-based. In general terms: Counterscreens check selectivity or assay interference.
In test [14] the target is Eukaryotic translation initiation factor 4E (Mus musculus, UniProt P63073). Briefly: blockers of eIF4G binding by eIF4E – biochemical, TR-FRET, dose response (AID 855).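 Also: potency for disrupting eIF4E binding to eIF4GI seen as loss of FRET.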 In kind it is functional. On the technique in general: In TR-FRET formats the signal depends on donor and acceptor labels being close together.
Eukaryotic translation initiation factor 4E, sequence (P63073 whole entry): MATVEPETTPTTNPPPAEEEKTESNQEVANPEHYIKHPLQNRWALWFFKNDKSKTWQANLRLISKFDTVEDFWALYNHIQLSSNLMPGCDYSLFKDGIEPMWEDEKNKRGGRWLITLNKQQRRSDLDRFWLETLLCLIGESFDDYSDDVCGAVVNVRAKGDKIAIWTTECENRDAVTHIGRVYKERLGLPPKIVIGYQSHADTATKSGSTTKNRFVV
Test [15] addresses T6, Insulin-degrading enzyme (Homo sapiens, UniProt P14735).
T6 sequence (P14735 whole entry): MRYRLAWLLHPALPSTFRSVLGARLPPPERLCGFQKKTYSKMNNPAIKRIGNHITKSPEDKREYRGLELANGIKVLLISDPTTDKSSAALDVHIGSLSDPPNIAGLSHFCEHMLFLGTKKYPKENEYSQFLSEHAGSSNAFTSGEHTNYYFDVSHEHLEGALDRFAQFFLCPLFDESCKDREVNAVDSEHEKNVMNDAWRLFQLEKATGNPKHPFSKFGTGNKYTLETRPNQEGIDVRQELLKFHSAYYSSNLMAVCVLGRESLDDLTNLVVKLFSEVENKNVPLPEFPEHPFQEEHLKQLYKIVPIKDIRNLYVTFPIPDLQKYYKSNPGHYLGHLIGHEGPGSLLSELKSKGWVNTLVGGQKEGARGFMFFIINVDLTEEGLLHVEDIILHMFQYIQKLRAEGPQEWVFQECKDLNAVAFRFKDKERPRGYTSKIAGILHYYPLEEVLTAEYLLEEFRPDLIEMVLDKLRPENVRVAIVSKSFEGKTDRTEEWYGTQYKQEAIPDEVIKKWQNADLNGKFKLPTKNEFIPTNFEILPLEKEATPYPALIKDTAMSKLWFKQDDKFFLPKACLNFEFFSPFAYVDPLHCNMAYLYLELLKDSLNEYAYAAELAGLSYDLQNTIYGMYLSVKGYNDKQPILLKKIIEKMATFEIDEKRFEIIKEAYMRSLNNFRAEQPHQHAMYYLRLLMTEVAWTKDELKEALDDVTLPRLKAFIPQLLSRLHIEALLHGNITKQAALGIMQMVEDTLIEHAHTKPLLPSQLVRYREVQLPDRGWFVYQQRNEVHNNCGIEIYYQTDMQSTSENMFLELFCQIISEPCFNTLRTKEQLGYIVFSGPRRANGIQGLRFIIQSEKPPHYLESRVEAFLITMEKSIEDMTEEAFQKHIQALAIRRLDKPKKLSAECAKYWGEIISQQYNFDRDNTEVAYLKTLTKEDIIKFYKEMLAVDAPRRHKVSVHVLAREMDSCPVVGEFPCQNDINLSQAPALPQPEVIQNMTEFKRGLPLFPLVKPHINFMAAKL
As to the kind of experiment: recombinant IDE activation, cell-free – biochemical, fluorescence polarization, counter-screen for IDE activator project, dose response (AID 588681).

Test [16] concerns the target T6, Insulin-degrading enzyme. As to the kind of experiment: cellular IDE activation of Abeta substrate cleavage – fluorescence polarization, HEK cells, dose response (AID 588439). The test is classed as functional, cell-based.
For test [17], the system named is HEK293. Briefly: membrane integrity loss in HEK cells – cell-based, fluorescence, cytotoxicity control for IDE activator project, dose response (AID 588440).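 Also: cytotoxicity by LDH release measuring loss of membrane integrity.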 In kind it is functional. The settings on record: Homo sapiens.
Test [18] concerns HEK293. As to the kind of experiment: optical interference in Abeta FP readout, dose response, artefact control for IDE activator project, biochemical, fluorescence polarization (AID 588442). The test is classed as functional, cell-based. Conditions: Homo sapiens.

T1 sequence (Q9UBE0 whole entry): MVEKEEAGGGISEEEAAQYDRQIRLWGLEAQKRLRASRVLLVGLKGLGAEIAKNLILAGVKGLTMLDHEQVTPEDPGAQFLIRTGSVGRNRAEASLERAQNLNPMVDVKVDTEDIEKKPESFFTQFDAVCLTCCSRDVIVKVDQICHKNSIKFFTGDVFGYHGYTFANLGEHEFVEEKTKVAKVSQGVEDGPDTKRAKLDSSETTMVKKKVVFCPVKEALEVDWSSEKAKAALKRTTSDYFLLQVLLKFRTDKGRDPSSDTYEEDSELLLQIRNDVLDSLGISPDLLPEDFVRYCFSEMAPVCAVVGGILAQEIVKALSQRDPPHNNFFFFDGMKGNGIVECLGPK
T1 sequence (Q9UBT2 whole entry): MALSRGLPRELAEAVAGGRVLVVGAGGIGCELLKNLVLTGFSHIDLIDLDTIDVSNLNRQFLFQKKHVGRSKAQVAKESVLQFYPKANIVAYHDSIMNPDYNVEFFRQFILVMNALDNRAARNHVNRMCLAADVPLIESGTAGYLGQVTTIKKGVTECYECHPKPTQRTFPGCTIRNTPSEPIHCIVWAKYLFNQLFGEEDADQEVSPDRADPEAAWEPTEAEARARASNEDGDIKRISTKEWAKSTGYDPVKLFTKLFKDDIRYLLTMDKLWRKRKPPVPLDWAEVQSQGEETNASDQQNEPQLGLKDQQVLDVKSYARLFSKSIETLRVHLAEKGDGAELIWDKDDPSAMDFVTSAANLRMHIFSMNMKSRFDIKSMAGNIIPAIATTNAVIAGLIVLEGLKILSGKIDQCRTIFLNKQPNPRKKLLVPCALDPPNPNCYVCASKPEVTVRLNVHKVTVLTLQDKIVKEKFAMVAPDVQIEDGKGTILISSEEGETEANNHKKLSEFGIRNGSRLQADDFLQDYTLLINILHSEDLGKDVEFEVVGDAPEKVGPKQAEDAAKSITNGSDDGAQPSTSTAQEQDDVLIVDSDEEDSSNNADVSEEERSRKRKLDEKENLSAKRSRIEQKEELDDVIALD
DNA dC->dU-editing enzyme APOBEC-3A, sequence (P31941 whole entry): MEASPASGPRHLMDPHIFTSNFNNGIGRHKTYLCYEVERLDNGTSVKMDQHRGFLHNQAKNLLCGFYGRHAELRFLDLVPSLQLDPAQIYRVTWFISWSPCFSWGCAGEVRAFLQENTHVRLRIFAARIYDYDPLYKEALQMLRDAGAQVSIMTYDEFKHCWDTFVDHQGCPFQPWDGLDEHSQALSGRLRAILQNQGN
Protein disulfide-isomerase, sequence (P07237 whole entry): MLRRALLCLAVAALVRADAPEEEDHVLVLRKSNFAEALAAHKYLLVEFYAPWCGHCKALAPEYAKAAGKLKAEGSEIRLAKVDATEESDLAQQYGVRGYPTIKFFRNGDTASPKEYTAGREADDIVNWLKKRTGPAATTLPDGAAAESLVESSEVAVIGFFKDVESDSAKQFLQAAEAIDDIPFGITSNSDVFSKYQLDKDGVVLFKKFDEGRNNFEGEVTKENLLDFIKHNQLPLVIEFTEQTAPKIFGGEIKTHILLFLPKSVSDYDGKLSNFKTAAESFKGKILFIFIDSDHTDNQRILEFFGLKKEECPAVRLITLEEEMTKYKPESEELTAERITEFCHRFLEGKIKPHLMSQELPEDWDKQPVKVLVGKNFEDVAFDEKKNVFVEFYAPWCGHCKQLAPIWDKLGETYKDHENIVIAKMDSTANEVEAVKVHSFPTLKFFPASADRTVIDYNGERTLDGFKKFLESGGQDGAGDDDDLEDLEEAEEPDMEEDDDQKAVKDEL
DNA dC->dU-editing enzyme APOBEC-3G, sequence (Q9HC16 whole entry): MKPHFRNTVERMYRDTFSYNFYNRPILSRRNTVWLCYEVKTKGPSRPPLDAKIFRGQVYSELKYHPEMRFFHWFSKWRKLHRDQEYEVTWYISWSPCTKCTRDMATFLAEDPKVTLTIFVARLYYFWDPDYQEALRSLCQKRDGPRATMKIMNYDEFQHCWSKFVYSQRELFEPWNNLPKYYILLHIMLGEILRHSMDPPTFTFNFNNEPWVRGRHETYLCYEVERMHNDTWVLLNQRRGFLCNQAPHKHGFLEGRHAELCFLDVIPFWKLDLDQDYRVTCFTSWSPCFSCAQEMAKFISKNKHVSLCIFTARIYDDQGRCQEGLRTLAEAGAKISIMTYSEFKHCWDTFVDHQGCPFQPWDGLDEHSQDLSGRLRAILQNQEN
26S proteasome non-ATPase regulatory subunit 14, sequence (O00487 whole entry): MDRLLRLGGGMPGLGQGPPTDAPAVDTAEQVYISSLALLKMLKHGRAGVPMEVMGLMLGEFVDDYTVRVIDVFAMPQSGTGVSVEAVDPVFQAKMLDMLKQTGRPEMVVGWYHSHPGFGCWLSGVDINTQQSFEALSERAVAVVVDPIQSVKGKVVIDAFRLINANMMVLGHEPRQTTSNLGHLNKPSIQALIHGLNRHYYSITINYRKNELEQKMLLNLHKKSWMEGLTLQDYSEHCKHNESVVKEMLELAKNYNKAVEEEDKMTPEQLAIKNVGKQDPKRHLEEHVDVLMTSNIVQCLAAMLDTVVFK

`CCc1ccc(/C=C2/SC(=S)N(CCC(=O)Nc3ccc(C(=O)O)cc3)C2=O)cc1`: the IC50 was 4.15 µM (active) at SUMO-activating enzyme [1]; 14.1 µM (active) at SUMO-activating enzyme [2]; > 80 µM (inactive) in test [3]; 18.1 µM (active) in test [4]; > 100 µM (inactive) in test [5]; 51.7 µM (active) at Prothrombin.
Turning to `NNC(=O)c1cc(-c2ccc(O)cc2)nc2ccc(Br)cc12`, the concentration at half-maximal activity (AC50) in test [6] was 19.5 µM (active).
On to `Cc1ccc(Cl)c2sc(NC(=O)c3ccc(S(=O)(=O)N4CC(C)CC(C)C4)cc3)nc12` (centres undefined), for which the IC50 (in [7]; at Caspase-3; in test [8]; in test [9]) was > 99 µM (inactive) in each case.
Take `Cc1cccc(-c2nc(/C=C/c3ccc(F)cc3)no2)c1`: the IC50 (in test [7]; on Caspase-3; in test [8]; in test [9]) was > 99 µM (inactive) in each case.
Regarding `CCCc1nnc2c3c4c(sc3ncn12)CCCC4`, the IC50 in test [10] and in test [11] was > 99 µM (inactive) throughout.
In the case of `CCN1CCN(CCNC(=O)c2ccc(/C=C3/Sc4ccccc4N(Cc4cccc(Cl)c4)C3=O)cc2)CC1`, the EC50 in test [12] is 1.41 µM (active); in test [13] it was 8.47 µM (active); on Insulin-degrading enzyme [15], 53.4 µM (inactive); on Insulin-degrading enzyme [16], > 54.7 µM (inactive); with HEK293 [18], > 55.9 µM (inactive). Also, the IC50 in test [14] was 50 µM (inactive); in the test with HEK293 [17], 19.5 µM (inactive).

As usually defined, the AC50 is the concentration giving half of the maximal activity seen. The EC50 is the concentration needed to bring the measured effect to its halfway point.
